Columns and labels:
[1] = test system: dog eye intraocular pressure (IOP); assay: Percent change from baseline IOP after intraocular administration in Beagle dogs; format: in vivo; conditions: for IOP reduction maintained through: compared to fellow eye
Description: Examples 3 to 7 below set forth in vivo (Beagle dogs) studies carried out by intraocular injection of microspheres or implant, suspended in aqueous vehicle (2% carboxy methylcellulose [CMC], 0.1% Tween 80 in 0.9% saline) or in a high viscosity, high shear rate gel (i.e. a suitable high molecular weight, polymeric hyaluronic acid). Microspheres or implant containing an anti-hypertensive agent was injected in one eye and placebo microspheres or implant was injected in the other eye as a control. IOP and hyperemia were monitored for multiweek periods. Ultra thin wall 25-27 gauge needles were used. When microspheres were used they were suspended in vehicle at 10% or 20% by weight.

[2] = test system: dog eye; assay: Hyperemia and ocular tolerability after intraocular administration in Beagle dogs; format: in vivo
Description: Microspheres or implant containing an anti-hypertensive agent was injected in one eye and placebo microspheres or implant was injected in the other eye as a control. IOP and hyperemia were monitored for multiweek periods. Ultra thin wall 25-27 gauge needles were used. When microspheres were used they were suspended in vehicle at 10% or 20% by weight.

[3] = anterior intravitreal administration, dog

## CCCCC[C@H](O)c1ccc(N2C(=O)CC[C@@H]2COCc2ccc(C(=O)OC(C)C)s2)cc1 [Compound A, 5-{(R)-1-[4-((S)-1-Hydroxy-hexyl)-phenyl]-5-oxo-pyrrolidin-2-ylmethoxymethyl}-thiophene-2-carboxylic acid isopropyl ester]
[1]; 50 microliter anterior vitreous injection
  IOP reduction maintained through: 3 days
[1]; 50 microliter intracameral injection, 0.1% in normal saline
  maximum IOP reduction from baseline: about 50%
[1]; 50 microliter intracameral injection
  IOP reduction maintained through: 3 days
[1]; [3]
  maximum IOP reduction below baseline: about 30%
[2]; [3]
  conjunctival hyperemia: mild conjunctival hyperemia through day 3
[2]; anterior vitreous injection
  ocular inflammation at follow up examinations: no signs of ocular inflammation
[2]; intracameral injection
  ocular inflammation at follow up examinations: no signs of ocular inflammation
[2]; intracameral, after the first day
  subsequent conjunctival hyperemia recordings: 0
[2]; intracameral, near the site of injection, first day
  maximum conjunctival hyperemia score: +0.5
[2]; neat injections in the anterior chamber and anterior vitreous
  tolerability: well tolerated
